Results as given in patent US9169259B2, “Imidazopyridazine compounds” (Hoffmann-La Roche Inc., priority 2011, dated 2015).

Target: recombinant human SYK360-635 (Homo sapiens (Human), UniProt P43405)
Assay: SYK kinase assay (33P ATP filtration, IC50 of SYK inhibition)
Format: biochemical
Details: truncated SYK aa 360-635 0.5 nM, ATP 20 μM, peptide 5 μM, 30° C. 15 min; read-out: ENZYME_FILTRATION_IC50
Method: Determination of IC50 of Spleen Tyrosine Kinase (SYK) Inhibition:
SYK kinase assay is a standard kinase assay adapted to a 96 well plate format. This assay is performed in 96-well format for IC50 determination with […] which represented 10 half log dilutions and a 40 μL reaction volume. The assay measures the incorporation of radiolabeled ^33P γATP into an N-terminally biotinylated peptide substrate, derived from naturally occurring phosphoacceptor consensus sequence (Biotin-11aa DY*E). Phosphorylated products were detected upon termination of reactions with EDTA and the addition of Streptavidin coated beads.
Assay plates: 96-well MultiScreen 0.65 um filter plates (Millipore Cat. No.: MADVNOB10)
final concentration: 50 mM HEPES pH7.5
BSA: Bovine Serum Albumin Fraction V, fatty acid free (Roche Diagnostics GmbH, Cat. No. 9100221) diluted to a final concentration of 0.1%
Assay Dilution Buffer (ADB): 50 mM HEPES, 0.1 mM EGTA, 0.1 mM Na Vanadate, 0.1 mM β-glycerophosphate, 10 mM MgCl2, 1 mM DTT, 0.1% BSA, pH 7.5
Bead wash buffer: 10 g/L PBS (Phosphate buffered saline) with 2M NaCl+1% phosphoric acid.
DMSO and the mixture was incubated for 10 min at RT.
The kinase reaction was initiated by the addition of 10 μL 4× substrate cocktail containing the DYE peptide substrate [0 or 5 μM], ATP [20 μM] and ^33PγATP [2 μCi/r×n]. After incubation at 30° C. for 15 min, the reaction was terminated by the transfer of 25 μL of the reaction sample to a 96 well 0.65 μm Millipore MADVNOB membrane/plate containing 200 μL 5 mM EDTA and 20% Streptavidine coated beads in PBS.
After the last wash membrane/plates were transferred to an adaptor plate, heat dried for 15 min at 60° C., and 50 μL scintillation cocktail was added to each well and 4 h later the amount of radioactivity was counted in a top counter.

Row | IC50 | SMILES
1 | 306 nM | COc1ccc(-c2cc(Nc3cccc(N4CCCC4C)n3)c3nccn3n2)cc1OC (stereo not drawn) [Example I-62, [6-(3,4-Dimethoxy-phenyl)-imidazo[1,2-b]pyridazin-8-yl]-[6-(2-methyl-pyrrolidin-1-yl)-pyridin-2-yl]-amine]
2 | 2.2 nM | COc1ccc(Nc2cc(N3CCCC(NC(=O)c4ccc(C(=O)O)cc4)C3)nn3ccnc23)nc1OC (stereo not drawn) [Example I-72, N-{1-[8-(5,6-Dimethoxy-pyridin-2-ylamino)-imidazo[1,2-b]pyridazin-6-yl]-piperidin-3-yl}-terephthalamic acid]
3 | 98.1 nM | CC1CCCN1c1cccc(Nc2cc(-c3ccc4[nH]ncc4c3)nn3ccnc23)n1 (stereo not drawn) [Example I-37, [6-(1H-Indazol-5-yl)-imidazo[1,2-b]pyridazin-8-yl]-[6-(2-methyl-pyrrolidin-1-yl)-pyridin-2-yl]-amine]
